In patent US20080161340A1, “Tetrahydroquinilinones, tetrahydronaphthyridones and derivatives thereof” (priority 2006, published 2008):

Experiments:
Type in all cases: cell-based
hCB1 = target: T1, hCB1 (Homo sapiens, UniProt P21554); experiment: cAMP assay (LANCE TR-FRET) in CHO-K1 cells stably expressing hCB1, agonist/inverse agonist; conditions: intracellular cAMP, CHO-K1 hCB1 cells prestimulated with NKH-477, + agonist, − inverse agonist; for EC50: read-out: hCB1 EC50 class
T1 construct: host or cells: CHO-K1
T1 sequence (P21554 whole entry): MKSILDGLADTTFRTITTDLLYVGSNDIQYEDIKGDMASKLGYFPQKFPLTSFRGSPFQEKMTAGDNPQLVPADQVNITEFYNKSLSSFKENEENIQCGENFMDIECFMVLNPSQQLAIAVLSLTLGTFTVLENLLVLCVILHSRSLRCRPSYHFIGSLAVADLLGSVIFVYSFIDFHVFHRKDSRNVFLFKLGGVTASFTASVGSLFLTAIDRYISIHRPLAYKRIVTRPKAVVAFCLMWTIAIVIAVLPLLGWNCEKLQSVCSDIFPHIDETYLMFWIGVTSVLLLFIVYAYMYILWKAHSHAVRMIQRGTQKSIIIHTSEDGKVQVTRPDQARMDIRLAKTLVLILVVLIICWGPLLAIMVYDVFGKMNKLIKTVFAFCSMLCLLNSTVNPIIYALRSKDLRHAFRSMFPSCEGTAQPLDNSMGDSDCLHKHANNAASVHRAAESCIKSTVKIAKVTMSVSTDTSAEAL
Method: (§1) The ability of compounds to act as agonists or inverse agonists at human CB2 and CB1 receptors (hCB2, hCB1, respectively) was determined by measuring changes in intracellular cAMP levels. Chinese Hamster Ovary (CHO-K1) cell lines stably expressing hCB2 (Genebank: X74328) or hCB1 (Genebank: X54937) were purchased from Euroscreen (Gosselies, Belgium).
(§2) Cell lines were grown in suspension in EX-CELL 302 CHO Serum-free medium (Sigma, cat #14324C) supplemented with 1% Fetal Bovine Serum, glutamine and non-essential amino-acids under 0.4 mg/mL G418 selection.
(§3) Receptor mediated responses were determined by measuring changes in intracellular cAMP using LANCE cAMP detection kit (cat #AD0264, PerkinElmer, Wellesley, Mass.) based on time-resolved fluorescence resonance energy transfer (TR-FRET). Changes in cAMP were determined in cells pre-incubated with IBMX (isobutyl methylxanthine) and prestimulated with NKH-477 (a water soluble forskolin derivative, cat #1603, Tocris, Ellisville, Mo.) to increase basal cAMP levels as detailed below.
(§4) On the day of the experiment, cells were spun at low speed for 5 min at room temperature. The supernatant was removed and cells were resuspended in stimulation buffer (Hanks Buffered Salt Solution/5 mM HEPES, containing 0.5 mM IBMX (cat #17018, Sigma) and 0.02% BSA (PerkinElmer, cat #CR84-100)). Cell clumps were removed by filtering through cell strainer 40 μm (BD Falcon, Discovery Labware, Bedford, Mass.) and diluted to 2×10^5 cells/mL. Antibody supplied with the LANCE cAMP immunoassay kit was then added according to the manufacturer's instructions. An aliquot of cells was taken for un-induced controls. To the remaining cells was added NKH-477 (a water soluble forskolin derivative, Tocris cat #1603) to a final concentration of 2-8 μM. Cells were then incubated for 30 min at room temperature prior to adding to Proxiplates containing test compounds (final DMSO concentration was less than 0.5%) with a Multidrop bulk dispenser, followed by a sixty minute incubation at room temperature. The response was stopped by addition of the detection mix supplied with the LANCE kit.
(§5) The reagents were allowed to equilibrate for three hours prior to reading on an Envision multi-mode detector (PerkinElmer). TR-FRET was measured using a 330-380 nm excitation filter, a 665 nm emission filter, dichroic mirror 380 nm and Z=1 mm.
(§6) Cyclic AMP concentrations in each well were back-calculated from a cAMP standard curve run concurrently during each assay. Each plate contained 16 wells of forskolin stimulated cells and 16 wells of forskolin plus CP55,940-treated. CP55,940-treated cells were treated with CP55,940 (Tocris cat. # 0949) at 1 μm and the maximal response was used as the full range (100%) standard. WIN55,212 (Tocris cat. # 1038) was used as an internal standard. Concentrations of cAMP were expressed as a percent of the difference of these two groups of wells. Concentration-response data including ECso (the concentration of compound producing 50% of the maximal response) and intrinsic activity (the percent maximal activation compared to full activation by CP55,940) were determined using a four-parameter non-linear regression algorithm (Xlfit equation 251, IDBS).

hCB2 = target: T2, hCB2 (Homo sapiens, UniProt P34972); experiment: cAMP assay (LANCE TR-FRET) in CHO-K1 cells stably expressing hCB2, agonist/inverse agonist; conditions: intracellular cAMP, CHO-K1 hCB2 cells prestimulated with NKH-477; + agonist, − inverse agonist
T2 construct: host or cells: CHO-K1
T2 sequence (P34972 whole entry): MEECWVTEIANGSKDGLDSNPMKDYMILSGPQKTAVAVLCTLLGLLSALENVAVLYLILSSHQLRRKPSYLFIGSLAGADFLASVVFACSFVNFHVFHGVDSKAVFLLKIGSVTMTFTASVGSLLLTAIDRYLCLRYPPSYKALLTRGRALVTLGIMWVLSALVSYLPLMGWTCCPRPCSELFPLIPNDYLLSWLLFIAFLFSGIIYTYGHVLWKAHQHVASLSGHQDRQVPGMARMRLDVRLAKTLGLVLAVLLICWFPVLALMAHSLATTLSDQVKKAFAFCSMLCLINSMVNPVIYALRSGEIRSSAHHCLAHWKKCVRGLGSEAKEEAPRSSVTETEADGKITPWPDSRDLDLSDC
Method: as §1, §2, §3, §4, §5, §6

rCB2 = target: T3, rCB2 (Rattus norvegicus, UniProt Q9QZN9); experiment: cAMP assay, rCB2 in Table 7, agonist/inverse agonist; conditions: intracellular cAMP; + agonist, − inverse agonist
T3 sequence (Q9QZN9 1-360): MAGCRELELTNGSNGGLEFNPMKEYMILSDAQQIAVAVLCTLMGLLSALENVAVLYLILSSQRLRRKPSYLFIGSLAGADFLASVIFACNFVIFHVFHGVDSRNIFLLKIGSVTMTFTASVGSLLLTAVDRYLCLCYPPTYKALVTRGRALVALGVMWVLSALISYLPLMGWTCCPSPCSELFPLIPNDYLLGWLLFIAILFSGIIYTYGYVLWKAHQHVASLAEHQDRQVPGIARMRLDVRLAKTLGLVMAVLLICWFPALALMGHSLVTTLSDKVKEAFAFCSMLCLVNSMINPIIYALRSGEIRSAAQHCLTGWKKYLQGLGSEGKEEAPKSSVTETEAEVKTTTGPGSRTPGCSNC
Method: as §3, §4, §5, §6

How did the EC50 (hCB1) turn out when `COc1cccc(-c2cc3c(n(CC4CCC4)c2=O)CCCC3)c1` [Compound 16, 1-(cyclobutylmethyl)-3-(3-methoxyphenyl)-5,6,7,8-tetrahydroquinolin-2(1H)-one] was run?
Its EC50 is over 10 µM.

What about the “hCB2 EC50 class” value (hCB2) of the same compound?
The value was “+B”.

What about the “rCB2 EC50 class” value (rCB2) of the same compound?
The value was “+B”.

What does the source list for `O=c1c(-c2ccccc2Cl)cc2c(n1CC1CCC1)CCCC2` [Compound 18, 3-(2-chlorophenyl)-1-(cyclobutylmethyl)-5,6,7,8-tetrahydroquinolin-2(1H)-one]?
EC50 (hCB1): > 10 µM; hCB2 EC50 class (hCB2): +B; rCB2 EC50 class (rCB2): +B

Which results are given for `O=c1c(-c2ccc(Cl)cc2)cc2c(n1CC1CCC1)CCCC2` [Compound 19, 3-(4-chlorophenyl)-1-(cyclobutylmethyl)-5,6,7,8-tetrahydroquinolin-2(1H)-one]?
EC50 (hCB1): > 10 µM; hCB2 EC50 class (hCB2): +B; rCB2 EC50 class (rCB2): +B

Which results are given for `O=c1c(-c2ccccc2C(F)(F)F)cc2c(n1CC1CCC1)CCCC2` [Compound 20, 1-(cyclobutylmethyl)-3-(2-(trifluoromethyl)phenyl)-5,6,7,8-tetrahydroquinolin-2(1H)-one]?
EC50 (hCB1): > 10 µM; hCB2 EC50 class (hCB2): +B; rCB2 EC50 class (rCB2): +B

Which results are given for `O=c1c(-c2cccc(Cl)c2)cc2c(n1CC1CC1)CCCC2` [Compound 22, 3-(3-chlorophenyl)-1-(cyclopropylmethyl)-5,6,7,8-tetrahydroquinolin-2(1H)-one]?
EC50 (hCB1): > 10 µM; hCB2 EC50 class (hCB2): +B; rCB2 EC50 class (rCB2): −B

Which “hCB1 EC50 class” value (hCB1) does the source give for `O=c1c(-c2ccc(C(F)(F)F)cc2)cc2c(n1CC1CCCCC1)CCCC2` [Compound 23, 1-(cyclohexylmethyl)-3-(4-(trifluoromethyl)phenyl)-5,6,7,8-tetrahydroquinolin-2(1H)-one] here?
Its value is “+B”.

And the “hCB2 EC50 class” value (hCB2)?
The value was “+B”.

What about the “rCB2 EC50 class” value (rCB2) of the same compound?
The value was “−B”.

Which “hCB1 EC50 class” value (hCB1) does the source give for `O=c1c(-c2cccc(Cl)c2)cc2c(n1CC1CCCCC1)CCCC2` [Compound 25, 3-(3-chlorophenyl)-1-(cyclohexylmethyl)-5,6,7,8-tetrahydroquinolm-2(1H)-one] here?
The value was “+B”.

And the “hCB2 EC50 class” value (hCB2)?
Its value is “+B”.

What about the “rCB2 EC50 class” value (rCB2) of the same compound?
The value was “+A”.

Which EC50 (hCB1) does the source give for `Cn1cc(-c2cc3c(n(CC4CCC4)c2=O)CCCC3)cn1` [Compound 26, 1-(cyclobutylmethyl)-3-(1-methyl-1H-pyrazol-4-yl)-5,6,7,8-tetrahydroquinolin-2(1H)-one] here?
The EC50 was over 10 µM.

What about the “hCB2 EC50 class” value (hCB2) of the same compound?
The value was “+B”.

And the “rCB2 EC50 class” value (rCB2)?
The value was “+A”.

Which EC50 (hCB1) does the source give for `COc1ncc(-c2cc3c(n(CC4CCC4)c2=O)CCCC3)c(OC)n1` [Compound 29, 1-(cyclobutylmethyl)-3-(2,4-dimethoxypyrimidin-5-yl)-5,6,7,8-tetrahydroquinolin-2(1H)-one] here?
The EC50 was over 10 µM.

And the “hCB2 EC50 class” value (hCB2)?
The value was “+B”.

And the “rCB2 EC50 class” value (rCB2)?
The value was “+A”.

How did the EC50 (hCB1) turn out when `Cc1ccccc1Cc1cc2c(n(CC3CCC3)c1=O)CCCC2` [Compound 30, 1-(cyclobutylmethyl)-3-(2-methylbenzyl)-5,6,7,8-tetrahydroquinolin-2(1H)-one] was run?
The EC50 was over 10 µM.

And the “hCB2 EC50 class” value (hCB2)?
The value was “+A”.

And the “rCB2 EC50 class” value (rCB2)?
The value was “+A”.

Which EC50 (hCB1) does the source give for `O=c1c(Cc2ccccc2F)cc2c(n1CC1CCC1)CCCC2` [Compound 31, 1-(cyclobutylmethyl)-3-(2-fluorobenzyl)-5,6,7,8-tetrahydroquinolin-2(1H)-one] here?
The EC50 was over 10 µM.

What about the “hCB2 EC50 class” value (hCB2) of the same compound?
Its value is “+A”.

What about the “rCB2 EC50 class” value (rCB2) of the same compound?
Its value is “+A”.

What does the source list for `O=c1c(Cc2ccncc2)cc2c(n1CC1CCC1)CCCC2` [Compound 32, 1-(cyclobutylmethyl)-3-(pyridin-4-ylmethyl)-5,6,7,8-tetrahydroquinolin-2(1H)-one]?
EC50 (hCB1): > 10 µM; hCB2 EC50 class (hCB2): +B; rCB2 EC50 class (rCB2): +B

With `O=c1c(Cc2ccc(F)cc2)cc2c(n1CC1CCC1)CCCC2` [Compound 33, 1-(cyclobutylmethyl)-3-(4-fluorobenzyl)-5,6,7,8-tetrahydroquinolin-2(1H)-one] as the compound, how does the EC50 (hCB1) read?
Its EC50 is over 10 µM.

What about the “hCB2 EC50 class” value (hCB2) of the same compound?
The value was “+B”.

What about the “rCB2 EC50 class” value (rCB2) of the same compound?
The value was “+B”.

`O=c1c(Cc2ccccc2)cc2c(n1CC1CCC1)CCCC2` [Compound 34, 3-benzyl-1-(cyclobutylmethyl)-5,6,7,8-tetrahydroquinolin-2(1H)-one] was tested. Which EC50 (hCB1) did it give?
Its EC50 is over 10 µM.

And the “hCB2 EC50 class” value (hCB2)?
Its value is “+B”.

What about the “rCB2 EC50 class” value (rCB2) of the same compound?
The value was “+B”.

With `O=c1c(-c2ccc(C(F)(F)F)cc2)cc2c(n1CC1CCC1)CCNC2` [Compound 39, 3-(4-(trifluoromethyl)phenyl)-1-(cyclobutylmethyl)-5,6,7,8-tetrahydro-1,6-naphthyridin-2(1H)-one] as the compound, how does the EC50 (hCB1) read?
The EC50 was over 10 µM.

What about the “hCB2 EC50 class” value (hCB2) of the same compound?
Its value is “+C”.

What about the “rCB2 EC50 class” value (rCB2) of the same compound?
Its value is “+C”.

`O=c1c(-c2cccnc2)cc2c(n1CC1CCC1)CCNC2` [Compound 40, 1-(cyclobutylmethyl)-3-(pyridin-3-yl)-5,6,7,8-tetrahydro-1,6-naphthyridin-2(1H)-one] was tested. Which EC50 (hCB1) did it give?
Its EC50 is over 10 µM.

And the “hCB2 EC50 class” value (hCB2)?
The value was “+C”.

And the “rCB2 EC50 class” value (rCB2)?
The value was “+B”.

`CS(=O)(=O)N1CCc2c(cc(-c3cccc(Cl)c3)c(=O)n2CC2CCC2)C1` [Compound 41, 3-(3-chlorophenyl)-1-(cyclobutylmethyl)-6-(methylsulfonyl)-5,6,7,8-tetrahydro-1,6-naphthyridin-2(1H)-one] was tested. Which EC50 (hCB1) did it give?
Its EC50 is over 10 µM.

And the “hCB2 EC50 class” value (hCB2)?
The value was “+A”.

What about the “rCB2 EC50 class” value (rCB2) of the same compound?
Its value is “+A”.

Which results are given for `CC(=O)N1CCc2c(cc(-c3cccc(Cl)c3)c(=O)n2CC2CCC2)C1` [Compound 42, 6-acetyl-3-(3-chlorophenyl)-1-(cyclobutylmethyl)-5,6,7,8-tetrahydro-1,6-naphthyridin-2(1H)-one]?
hCB1 EC50 class (hCB1): +C; hCB2 EC50 class (hCB2): +A; rCB2 EC50 class (rCB2): +A

For `CS(=O)(=O)N1CCc2c(cc(-c3ccc(C(F)(F)F)cc3)c(=O)n2CC2CCC2)C1` [Compound 43, 1-(cyclobutylmethyl)-6-(methylsulfonyl)-3-(4-(trifluoromethyl)phenyl)-5,6,7,8-tetrahydro-1,6-naphthyridin-2(1H)-one], which EC50 (hCB1) is on record?
Its EC50 is over 10 µM.

And the “hCB2 EC50 class” value (hCB2)?
Its value is “+A”.

And the “rCB2 EC50 class” value (rCB2)?
The value was “+B”.

With `CC(=O)N1CCc2c(cc(-c3ccc(C(F)(F)F)cc3)c(=O)n2CC2CCC2)C1` [Compound 44, 6-acetyl-1-(cyclobutylmethyl)-3-(4-(trifluoromethyl)phenyl)-5,6,7,8-tetrahydro-1,6-naphthyridin-2(1H)-one] as the compound, how does the EC50 (hCB1) read?
Its EC50 is over 10 µM.

What about the “hCB2 EC50 class” value (hCB2) of the same compound?
Its value is “+B”.

What about the “rCB2 EC50 class” value (rCB2) of the same compound?
The value was “+B”.

For `CC(=O)N1CCc2c(cc(-c3cccnc3)c(=O)n2CC2CCC2)C1` [Compound 46, 6-acetyl-1-(cyclobutylmethyl)-3-(pyridin-3-yl)-5,6,7,8-tetrahydro-1,6-naphthyridin-2(1H)-one], which EC50 (hCB1) is on record?
Its EC50 is over 10 µM.

And the “hCB2 EC50 class” value (hCB2)?
Its value is “+B”.

What about the “rCB2 EC50 class” value (rCB2) of the same compound?
Its value is “+B”.

For `CS(=O)(=O)N1CCc2c(cc(-c3cccc(Cl)c3)c(=O)n2CC2CC2)C1` [Compound 48, 3-(3-chlorophenyl)-1-(cyclopropylmethyl)-6-(methylsulfonyl)-5,6,7,8-tetrahydro-1,6-naphthyridin-2(1H)-one], which EC50 (hCB1) is on record?
The EC50 was over 10 µM.

What about the “hCB2 EC50 class” value (hCB2) of the same compound?
Its value is “+A”.

And the “rCB2 EC50 class” value (rCB2)?
Its value is “+A”.

`CCS(=O)(=O)N1CCc2c(cc(-c3cccc(Cl)c3)c(=O)n2CC2CC2)C1` [Compound 49, 3-(3-chlorophenyl)-1-(cyclopropylmethyl)-6-(ethylsulfonyl)-5,6,7,8-tetrahydro-1,6-naphthyridin-2(1H)-one] was tested. Which EC50 (hCB1) did it give?
Its EC50 is over 10 µM.

What about the “hCB2 EC50 class” value (hCB2) of the same compound?
Its value is “+B”.

And the “rCB2 EC50 class” value (rCB2)?
The value was “+B”.
